Results on 13 molecules are retold here after patent US9174940B2, “TSH receptor antagonizing tetrahydroquinoline compounds” (Merck Sharp & Dohme B.V., priority 2007, dated 2015).

In assay [1] the target is T1, human TSH receptor (Homo sapiens (Human), UniProt P16473). Description: Antagonist activity against bovine TSH at the human TSH receptor in CHO cells under the TSI assay conditions (CRE-luciferase reporter, rolipram). The conditions noted are these: stimulated with 18 nM bovine TSH; 10 μM rolipram; CHO cells cultured 16 h without serum. The assay is classed as cell-based.
T1 sequence (P16473 21-764): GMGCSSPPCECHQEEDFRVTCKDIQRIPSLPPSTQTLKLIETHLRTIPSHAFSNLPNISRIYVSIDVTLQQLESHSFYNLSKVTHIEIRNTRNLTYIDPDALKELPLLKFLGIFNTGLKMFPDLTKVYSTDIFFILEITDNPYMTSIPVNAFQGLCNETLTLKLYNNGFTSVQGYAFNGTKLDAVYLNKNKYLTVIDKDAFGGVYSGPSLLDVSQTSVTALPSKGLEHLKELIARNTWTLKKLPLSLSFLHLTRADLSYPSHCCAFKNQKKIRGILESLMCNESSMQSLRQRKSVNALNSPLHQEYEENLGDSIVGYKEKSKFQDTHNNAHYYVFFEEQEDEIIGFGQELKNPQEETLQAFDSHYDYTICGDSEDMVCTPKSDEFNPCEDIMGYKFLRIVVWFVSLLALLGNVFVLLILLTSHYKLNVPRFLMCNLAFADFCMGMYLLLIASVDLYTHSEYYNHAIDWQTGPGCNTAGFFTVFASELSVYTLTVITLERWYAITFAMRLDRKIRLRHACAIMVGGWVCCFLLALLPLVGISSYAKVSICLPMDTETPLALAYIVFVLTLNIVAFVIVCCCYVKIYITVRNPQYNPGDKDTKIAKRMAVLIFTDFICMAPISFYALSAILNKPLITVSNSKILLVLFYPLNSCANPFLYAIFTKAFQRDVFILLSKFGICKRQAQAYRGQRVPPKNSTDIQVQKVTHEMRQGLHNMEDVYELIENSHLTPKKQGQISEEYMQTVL

The target of assay [2] is T1, human TSH receptor. Description: Antagonist activity against human TSI at the human TSH receptor expressed in CHO cells (CRE-luciferase reporter, rolipram). The assay is classed as cell-based. The conditions noted are these: stimulated with 3.16 mg/ml human TSI; 10 μM rolipram; CHO cells cultured 16 h without serum.
Assay [3] relates to constitutively active human TSHR mutants (Thr632Ile, Ala623Val, Ile568Thr, Asp619Gly and Asp633Glu). Description: Antagonist activity at constitutively active human TSH receptors expressed in CHO cells (cAMP Alphascreen). Type of assay: cell-based. The conditions noted are these: 10^−6M compound, 10 μM rolipram, transiently transfected CHO cells. The method, then: Antagonist activity of two compounds was tested in Chinese Hamster Ovary (CHO) cells transiently transfected with a plasmid encoding one of the 5 most prevalent, constitutively active human TSHR mutants (Thr632Ile, Ala623Val, Ile568Thr, Asp619Gly and Asp633Glu) (van Sande et al. (1995) J. Clin. Endocrinol. Metabol. 80, 2577-2585), which have been identified in autonomously functioning thyroid nodules causing hyperthyroidism. The cells were incubated with 10^−6M of either the compound of example 35 or example 1 in the presence of 10 μM rolipram. Activity of the TSH receptor mutants was quantified using a Packard cAMP Alphascreen assay.
(In Alpha technology, singlet oxygen from a donor bead excites a nearby acceptor bead.)

Assay [4] deals with T1, human TSH receptor. Description: Antagonist activity against TSH at the human TSH receptor expressed in CHO cells (CRE-luciferase reporter). The settings on record: together with 18 nM bovine TSH. (In a reporter assay the amount or activity of a reporter protein is the signal.)
Procedure: Antagonist activity of the compounds against TSH at the human TSH receptor was tested in Chinese Hamster Ovary (CHO) cells stably transfected with a plasmid encoding the human TSH receptor and a second plasmid with a cAMP responsive element (CRE)/promotor directing the expression of a firefly luciferase reporter gene. Binding of bovine TSH to the Gs-coupled TSH receptor will result in an increase of cAMP, which in turn will induce an increased transactivation of the luciferase reporter. Luciferase activity was quantified using a luminescence counter.

What is called IC50 is the point on the concentration scale where inhibition reaches its midpoint. Low readings indicate inhibition by little substance, high ones a need for much substance. On to `CC(=O)N1CCC(C)(c2ccccc2)c2cc(NC(=O)OC3CCCC3)ccc21` (single isomer, unassigned; (+)) [Example 39], for which the results for the IC50 in assay [1] and in assay [2] were 48 nM and 12 nM, respectively.

On to `CC(=O)N1CCC(C)(c2ccccc2)c2cc(NC(=O)OCc3ccc(F)c(Cl)c3)ccc21` (single isomer, unassigned; (+)) [Example 40, (+)-(1-Acetyl-4-methyl-4-phenyl-1,2,3,4-tetrahydro-quinolin-6-yl)-carbamic acid 3-chloro-4-fluoro-benzyl ester], for which the IC50 in assay [1] worked out at 192 nM; in assay [2], 47 nM.

As to `CCCCCC(=O)Nc1ccc2c(c1)C(C)(c1ccccc1)CC(C)(C)N2C(C)=O` (stereo not drawn) [Example 1, Hexanoic acid (1-acetyl-2,2,4-trimethyl-4-phenyl-1,2,3,4-tetrahydro-quinolin-6-yl)-amide], the “inhibition of constitutive activity of all 5 receptor mutants” value in assay [3] is recorded as over 80%. Besides, the IC50 was under 100 nM in assay [4], 368 nM in assay [1] and 88 nM in assay [2].

Turning to `CC(=O)N1c2ccc(NC(=O)c3ccccn3)cc2C(C)(c2ccccc2)CC1(C)C` (stereo not drawn) [Example 4, Pyridine-2-carboxylic acid (1-acetyl-2,2,4-trimethyl-4-phenyl-1,2,3,4-tetrahydro-quinolin-6-yl)-amide], the IC50 in assay [4] is under 100 nM.

In turn, `CC(=O)N1c2ccc(NC(=O)OCCOc3ccccc3)cc2C(C)(c2ccccc2)CC1(C)C` (stereo not drawn) [Example 6, (1-Acetyl-2,2,4-trimethyl-4-phenyl-1,2,3,4-tetrahydro-quinolin-6-yl)-carbamic acid 2-phenoxy-ethyl ester] showed an IC50 in assay [4] of under 100 nM.

As to `CCCCOC(=O)Nc1ccc2c(c1)C(C)(c1ccccc1)CC(C)(C)N2C(C)=O` (stereo not drawn) [Example 7, (1-Acetyl-2,2,4-trimethyl-4-phenyl-1,2,3,4-tetrahydro-quinolin-6-yl)-carbamic acid butyl ester], the IC50 in assay [4] was under 100 nM.

Molecule `CC(=O)N1c2ccc(NC(=O)CCc3cccc(Cl)c3)cc2C(C)(c2ccccc2)CC1(C)C` (stereo not drawn) [Example 26, N-(1-Acetyl-2,2,4-trimethyl-4-phenyl-1,2,3,4-tetrahydro-quinolin-6-yl)-3-(3-chloro-phenyl)-propionamide] gave an IC50 in assay [4] of under 100 nM.

`CC(=O)N1CCC(C)(c2ccccc2)c2cc(NC(=O)OCCC(C)C)ccc21` (stereo not drawn) [Example 27, (1-Acetyl-4-methyl-4-phenyl-1,2,3,4-tetrahydro-quinolin-6-yl)-carbamic acid 3-methyl-butyl ester] registered an IC50 in assay [4] of under 100 nM.

For the molecule `CC(=O)N1CCC(C)(c2ccccc2)c2cc(NC(=O)OCC3(C)CC3)ccc21` (stereo not drawn) [Example 28, (1-Acetyl-4-methyl-4-phenyl-1,2,3,4-tetrahydro-quinolin-6-yl)-carbamic acid 1-methyl-cyclopropylmethyl ester], in assay [4], the IC50 was under 100 nM.

With `CC(=O)N1CCC(C)(c2ccccc2)c2cc(NC(=O)OCC3CCC3)ccc21` (stereo not drawn) [Example 29, (1-Acetyl-4-methyl-4-phenyl-1,2,3,4-tetrahydro-quinolin-6-yl)-carbamic acid cyclobutylmethyl ester], in assay [4], the IC50 was under 100 nM.

Turning to `CC(=O)N1CCC(C)(c2ccccc2)c2cc(NC(=O)OCc3ccc(F)c(Cl)c3)ccc21` (stereo not drawn) [Example 34, (1-Acetyl-4-methyl-4-phenyl-1,2,3,4-tetrahydro-quinolin-6-yl)-carbamic acid 3-chloro-4-fluoro-benzyl ester], the IC50 in assay [4] was under 100 nM.

Turning to `CC(=O)N1CCC(C)(c2ccccc2)c2cc(NC(=O)c3ccc(Br)s3)ccc21` (stereo not drawn) [Example 35, 5-Bromo-thiophene-2-carboxylic acid (1-acetyl-4-methyl-4-phenyl-1,2,3,4-tetrahydro-quinolin-6-yl)-amide], the “inhibition of constitutive activity of all 5 receptor mutants” value in assay [3] is given as over 80%.

Consider “(1-Acetyl-4-methyl-4-phenyl-1,2,3,4,4a,8a-hexahydro-quinolin-6-yl)-carbamic acid cyclopentyl ester [Example 32]”, for which, in assay [4], the IC50 was under 100 nM.
